Results reported in publication PMC8512853, “Synthesis, Bioactivity, Pharmacokinetic and Biomimetic Properties of Multi-Substituted Coumarin Derivatives” (Molecules, 2021).
pIC50: −log10 of the molar value.

Key:
soybean LOX = molecular target: T1, soybean LOX (Glycine max, UniProt P08170); test: Inhibition of soybean LOX; assay type: biochemical; conditions: for inhibition at 100 µM: read-out: Soybean LOX % inhibition (100 μΜ)
T1 construct: purchased Sigma-Aldrich and Fluka
T1 sequence (P08170 1-839): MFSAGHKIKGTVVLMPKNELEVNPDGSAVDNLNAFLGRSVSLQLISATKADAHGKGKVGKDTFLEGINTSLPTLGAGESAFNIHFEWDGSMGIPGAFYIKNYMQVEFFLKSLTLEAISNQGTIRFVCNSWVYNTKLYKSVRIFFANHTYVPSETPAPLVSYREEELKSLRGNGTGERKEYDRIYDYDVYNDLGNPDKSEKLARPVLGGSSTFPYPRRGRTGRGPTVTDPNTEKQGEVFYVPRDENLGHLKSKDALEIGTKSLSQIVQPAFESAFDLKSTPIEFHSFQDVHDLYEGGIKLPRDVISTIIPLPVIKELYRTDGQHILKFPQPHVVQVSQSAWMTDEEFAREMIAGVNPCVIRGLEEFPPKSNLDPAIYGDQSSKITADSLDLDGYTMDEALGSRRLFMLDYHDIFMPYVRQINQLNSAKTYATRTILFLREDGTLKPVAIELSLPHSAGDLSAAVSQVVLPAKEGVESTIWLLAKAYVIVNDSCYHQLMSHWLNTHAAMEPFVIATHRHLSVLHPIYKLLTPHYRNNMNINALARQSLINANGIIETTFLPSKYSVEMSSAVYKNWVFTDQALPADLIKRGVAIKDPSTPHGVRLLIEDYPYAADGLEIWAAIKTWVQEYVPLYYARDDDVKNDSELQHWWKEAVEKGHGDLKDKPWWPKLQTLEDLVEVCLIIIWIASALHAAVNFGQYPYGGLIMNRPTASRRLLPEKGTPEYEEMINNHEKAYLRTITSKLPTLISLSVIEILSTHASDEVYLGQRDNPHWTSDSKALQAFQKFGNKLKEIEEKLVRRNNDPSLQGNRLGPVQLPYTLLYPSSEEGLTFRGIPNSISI
Method: Soybean LOX is a plant enzyme which has been used widely as a prototype for studying the functional and structural properties of the homologous family of lipoxygenases, presenting satisfactory homology with the human 5-LOX [14]. Linoleic acid (LA) is a standard substrate for plant LOXs. In this protocol, all new molecules were tested as inhibitors of soybean LOX as an indication of their anti-inflammatory activity (Table 3).
For the reference sample in a UV cuvette 10 μL of the test sample (100 μM diluted in DMSO), 200 μL LOX solution (diluted in NaCl 0.9%), 100 μL LA (diluted in Tris buffer) and Tris buffer solution (pH 9) were added to a final volume of 1 mL. Respectively for the measurement sample, also in a UV cuvette 10 μL of test sample, 200 μL LOX solution, and Tris buffer solution (pH 9) were added to a final volume of 1mL. Standard and blank samples were prepared in the same way using DMSO (solvent) instead of the tested coumarin analogues.

A549 cells = test: MTT cytotoxicity assay, A549; assay type: cell-based, human; conditions: 24 h; for cytotoxicity at 100 µM: Homo sapiens, A549, 100 μΜ, read-out: Cell Toxicity A549 % (100 μΜ)
Method: (§1) Furthermore, the coumarin compounds synthesized in this study were also evaluated for their cytotoxicity against A549 (adenocarcinomic human alveolar basal epithelial cells) and A375 (human melanoma) cell lines.
(§2) This protocol was used for the evaluation of cell viability and all the cell lines. It must be noted that this assay describes the count of cells that remain alive after the treatment. For the experimental procedure a standard solution of MTT 1mg/mL in PBS was prepared which after filtration ([…] filter (Millipore, Carrigtwohill, Ireland)) was stored in the dark (4–8 °C) until use. In a 96-well plate, HaCaT, A549 and A375 cells were seeded in a number of 30 × 10^4 cells/well for each evaluation series respectively. The cells were incubated (37 °C, 5% CO2) for 24 h, followed by the addition of the tested analogues (100 μM, diluted in DMEM) and another 24-h incubation. Next, appropriate amount of MTT was added in the tested wells and the plate returned to the incubator for the next 4 h for the formation of the formazan crystals. The formazan crystals were then redissolved by adding DMSO (100 μL) and stirring lightly for 40 min, after which the absorbance was measured in a plate reader at 540 nm with a reference absorbance of 720 nm.
(§3) All samples were tested in triplicate, against a control (only cells), blank (no cells), and positive control (100 μM standard silibinin solution was used as a “cell-killing” standard).

A375 cells = test: MTT cytotoxicity assay, A375; assay type: cell-based, human; conditions: for cytotoxicity at 100 µM: Homo sapiens, A-375, 24 h, A375, 100 μΜ, read-out: Cell Toxicity A375 % (100 μΜ)
Method: as §1, §2, §3

[1] = molecular target: T2, human serum albumin (HSA) (Homo sapiens, UniProt P02768); test: HSA chromatography and estimated plasma protein binding; assay type: in vitro ADME; conditions: for fraction unbound: human, immobilized human serum albumin (HSA) column, Equation (2) from logk10, pH 7.00, read-out: %PPB estimated plasma protein binding (converted); for logk10 (HSA retention factor): pH 7.00, 10% acetonitrile
T2 construct: purchased CHIRAL PAK
T2 sequence (P02768 25-609): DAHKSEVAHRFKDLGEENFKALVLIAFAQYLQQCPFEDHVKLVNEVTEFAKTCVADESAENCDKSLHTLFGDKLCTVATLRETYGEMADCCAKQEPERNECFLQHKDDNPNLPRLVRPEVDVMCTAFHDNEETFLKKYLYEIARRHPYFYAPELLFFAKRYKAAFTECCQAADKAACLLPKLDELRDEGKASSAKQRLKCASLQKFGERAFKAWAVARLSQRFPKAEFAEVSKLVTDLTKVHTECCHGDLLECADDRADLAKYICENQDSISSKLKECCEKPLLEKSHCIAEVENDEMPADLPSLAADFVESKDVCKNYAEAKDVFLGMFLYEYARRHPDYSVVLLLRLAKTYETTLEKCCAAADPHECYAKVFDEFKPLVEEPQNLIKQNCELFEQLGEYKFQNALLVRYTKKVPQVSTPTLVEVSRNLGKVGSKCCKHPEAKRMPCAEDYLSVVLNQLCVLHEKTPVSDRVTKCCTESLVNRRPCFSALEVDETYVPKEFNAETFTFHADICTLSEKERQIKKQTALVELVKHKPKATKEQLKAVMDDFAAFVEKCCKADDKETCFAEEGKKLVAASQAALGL
Method: The novel coumarin derivatives were also studied using the immobilized protein column HSA. An HSA chromatographic column provides estimates on the binding affinities of chemicals to human serum albumin, which is the most abundant plasma protein and is related to drug efficacy, drug—drug pharmacokinetic interactions, and drug safety. HSA binding can be considered to represent almost the total plasma protein binding of a drug.
Retention factors on the HSA stationary phase were measured using as eluent PBS at pH = 7.00 and a flow rate of 1 mL/min in the presence of 10% acetonitrile.
(2) % PPB=101∗10^logk10/1+10^logk10
The physicochemical and biomimetic properties of the new coumarin analogues were studied using liquid chromatography (HPLC) in 220–230 nm Two types of chromatographic columns were used: (i) immobilized artificial membrane (IAM) ([…].PC.DD.2, Regis Technologies) column and (ii) human serum albumin (HSA) (CHIRAL PAK) column.
The training set consisted of 25 neutral and slightly acidic compounds. Their IAM retention factors were measured at pH 7.40 on a IAM.PC.DD.2 column. The mobile phase consisted of acetonitrile solvent (CH3CN) in various concentrations (10%, 15%, 20%, 25%, 30%) and a flow rate of 3 mL/min was selected. Their HSA retention factors were measured at pH 7.00 on HSA column. The mobile phase consisted of acetonitrile solvent (CH3CN) in 10% concentration and a flow rate of 1 mL/min was selected.
The different pH values (7.00 for HSA and 7.40 for IAM) were measured with an electronic pH meter MP125 and were achieved by preparing suitable buffers of phosphates and chlorides (0.12 g KH2PO4, 0.72 g Na2HPO4·2H2O, 4.00 g NaCl and 0.10 g KCl). Sodium citrate solution was used to determine the dead time, which was deducted from the results at the end of measurements. The elution time of each coumarin analogue was measured at least three times. Retention times were converted into logk values, which represent the logarithm of the retention indexes, using Equation (8). (8) logk=log(tr−t0/t0) where tr is the retention time of the coumarin derivative and t0 is the dead time.

Structure (SMILES)	inhibition at 100 µM (soybean LOX) [%]	cytotoxicity at 100 µM (A549 cells) [%]	cytotoxicity at 100 µM (A375 cells) [%]	fraction unbound [1]	logk10 (HSA retention factor) [1]	pIC50 (soybean LOX)	Cell Toxicity A549 % (100 μΜ) (A549 cells)	Soybean LOX % inhibition (100 μΜ) (soybean LOX)	Cell Toxicity A375 % (100 μΜ) (A375 cells; 24 h)
Cc1c(-c2ccc(O)cc2)c(=O)oc2ccccc12 [Compound 4h, 3-(4-hydroxyphenyl)-4-methyl-chromen-2-one]	27.2	33.7	12.6	0.03	1.38	–	–	–	–
Cc1c(-c2cccc(F)c2)c(=O)oc2cccc(O)c12 [Compound 4e, 3-(3-fluorophenyl)-5-hydroxy-4-methyl-chromen-2-one]	–	52.3	43.1	0.034	1.34	5.39	–	–	–
CC(=O)Oc1cccc2oc(=O)c(-c3cccc(F)c3)c(C)c12 [Compound 3e, 5-acetyloxy-3-(3-fluorophenyl)-4-methyl-chromen-2-one]	–	8.9	> 60	0.149	0.73	4.94	–	–	–
Cc1c(-c2ccc(O)cc2)c(=O)oc2ccc(Cl)cc12 [Compound 4j, 6-chloro-3-(4-hydroxyphenyl)-4-methyl-chromen-2-one]	35	33.5	11.9	0.196	0.59	–	–	–	–
CC(=O)Oc1ccc(-c2c(C)c3ccccc3oc2=O)cc1 [Compound 3h, 3-(4-acetyloxyphenyl)-4-methyl-chromen-2-one]	33.8	–	43.2	0.145	0.74	–	no	–	–
CC(=O)Oc1cccc2oc(=O)c(-c3ccccc3F)c(C)c12 [Compound 3d, 5-acetyloxy-3-(2-fluorophenyl)-4-methyl-chromen-2-one]	11.6	7.5	28.5	0.149	0.73	–	–	inactive	–
CC(=O)Oc1ccc(-c2c(C)c3cc(Br)cc(Br)c3oc2=O)cc1OC(C)=O [Compound 3o, 3-(4,5-diacetyloxyphenyl)-6,8-dibromo-4-methyl-chromen-2-one]	–	–	45.6	0.201	0.58	–	no	no	–
CC(=O)Oc1ccc(-c2c(C)c3ccccc3oc2=O)cc1OC(C)=O [Compound 3l, 3-(4,5-diacetyloxyphenyl)-4-methyl-chromen-2-one]	31.4	–	40.4	0.401	0.16	–	no	–	–
Cc1c(-c2ccccc2F)c(=O)oc2cccc(O)c12 [Compound 4d, 3-(2-fluorophenyl)-5-hydroxy-4-methyl-chromen-2-one]	–	75.7	11.5	0.152	0.72	4.50	–	–	–
CC(=O)Oc1ccc(-c2c(C)c3cc(Cl)ccc3oc2=O)cc1 [Compound 3j, 3-(4-acetyloxyphenyl)-6-chloro-4-methyl-chromen-2-one]	–	–	50 to 60	0.088	0.97	4.31	no	–	–
CC(=O)Oc1ccc(-c2c(C)c3cc(Br)ccc3oc2=O)cc1OC(C)=O [Compound 3m, 3-(4,5-diacetyloxyphenyl)-6-bromo-4-methyl-chromen-2-one]	48	–	33.3	0.105	0.89	–	no	–	–
Cc1c(-c2cccc(Cl)c2)c(=O)oc2cccc(O)c12 [Compound 4b, 3-(3-chlorophenyl)-5-hydroxy-4-methyl-chromen-2-one]	47.3	–	52.8	0.201	0.58	–	no	–	–
CC(=O)Oc1ccc(-c2c(C)c3cc(Br)cc(Br)c3oc2=O)cc1 [Compound 3k, 3-(4-acetyloxyphenyl)-6,8-dibromo-4-methyl-chromen-2-one]	–	–	28.8	0.013	1.63	5.06	no	–	–
Cc1c(-c2ccc(F)cc2)c(=O)oc2cccc(O)c12 [Compound 4f, 3-(4-fluorophenyl)-5-hydroxy-4-methyl-chromen-2-one]	39.2	62.5	45.4	0.163	0.68	–	–	–	–
Cc1c(-c2ccccc2Cl)c(=O)oc2cccc(O)c12 [Compound 4a, 3-(2-chlorophenyl)-5-hydroxy-4-methyl-chromen-2-one]	–	64.7	33.1	0.13	0.79	5.00	–	–	–
Cc1c(-c2ccc(O)cc2)c(=O)oc2c(Br)cc(Br)cc12 [Compound 4k, 6,8-dibromo-3-(4-hydroxyphenyl)-4-methyl-chromen-2-one]	33.4	66.5	–	–	–	–	–	inactive	no
